From patent US11655235B2, “Pyrrolidine and piperidine compounds” (YUHAN CORPORATION, priority 2019, dated 2023) come the findings set out here.

The IC50 is the midpoint of a concentration-inhibition curve.

Structures are written as SMILES.

Experiment [1] deals with DPP4 (Homo sapiens, UniProt P27487). In words: DPP4 inhibition, fluorogenic substrate H-Gly-Pro-AMC. On the set-up: purchased R&D Systems. It is filed as biochemical. The conditions noted are these: recombinant human DPP4.
For experiment [2], the target named is T1, Recombinant human FAP (Homo sapiens, UniProt Q12884).
T1 construct: purchased R&D systems
T1 sequence (Q12884 1-760): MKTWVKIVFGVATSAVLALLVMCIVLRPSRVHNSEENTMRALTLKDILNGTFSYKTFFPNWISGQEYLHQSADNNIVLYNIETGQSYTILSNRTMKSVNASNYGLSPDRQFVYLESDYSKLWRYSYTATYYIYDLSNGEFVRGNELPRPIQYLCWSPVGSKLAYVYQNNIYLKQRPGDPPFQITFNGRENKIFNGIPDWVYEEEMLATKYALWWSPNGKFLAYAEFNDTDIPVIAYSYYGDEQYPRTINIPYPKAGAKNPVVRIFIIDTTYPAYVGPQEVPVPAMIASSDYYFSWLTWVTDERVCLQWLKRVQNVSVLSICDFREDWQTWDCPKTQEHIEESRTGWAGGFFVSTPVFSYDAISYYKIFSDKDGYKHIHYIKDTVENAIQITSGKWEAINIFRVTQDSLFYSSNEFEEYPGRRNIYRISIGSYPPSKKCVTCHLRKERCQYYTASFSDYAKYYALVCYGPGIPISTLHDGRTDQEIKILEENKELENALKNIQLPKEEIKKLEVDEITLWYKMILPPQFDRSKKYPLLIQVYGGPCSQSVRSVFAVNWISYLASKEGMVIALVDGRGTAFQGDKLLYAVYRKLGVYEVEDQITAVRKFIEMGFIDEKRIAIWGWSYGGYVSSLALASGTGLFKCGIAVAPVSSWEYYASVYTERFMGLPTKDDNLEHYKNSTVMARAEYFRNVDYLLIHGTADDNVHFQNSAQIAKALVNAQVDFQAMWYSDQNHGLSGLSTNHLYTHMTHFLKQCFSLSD
Description: FAP FRET assay, FGF21-sequence FRET peptide substrate. Type of experiment: biochemical. The settings on record: FRET peptide with human FGF21 sequence, 6 μM, 37° C. The procedure:
The compounds according to the present technology were evaluated in terms of the inhibitory effect on the activity of dipeptidyl peptidases including FAP by using a substrate producing fluorescent substances upon enzymatic decomposition. The test was conducted at 25° C. to get a final reaction volume of 100 μL in a 96 black well plate. […] Briefly, the test compounds were dissolved in dimethyl sulfoxide (DMSO) at a concentration of 20 mM and then subjected to serial dilution, thereby creating an 8 point curve. As for the control group, a 6 point curve created by serial dilution of Talabostat in the same buffer solution was used. Fluorescence intensity was measured using a microplate reader (Flexstation3, Molecular Devices) under the wavelength condition exciting at 380 nm and reading the emission at 460 nm. The inhibitory effect of the test compounds was measured as a decrease (%) in the signal rate as compared to the control group without any inhibitor. Data was fixed to a logistic model with four variables and IC50 value was calculated using GraphPad Prism program. For the FAP FRET assay, recombinant human FAP (R&D systems) was diluted with 50 mM HEPES (pH 7.2) buffer comprising 150 mM of sodium chloride, 0.1 mg/ml of bovine serum albumin (BSA) and 1 mM EDTA to be 10 ng per final reaction. The test compounds were subjected to serial dilution in a buffer under the condition containing up to 0.1% of DMSO. FRET peptides containing human FGF21 sequence ([…]) conjugated with HyLite Fluor 488 and dark quencher QXL 520 (Anaspec) was used as a substrate. By dissolving in DMSO and then diluting in the same buffer, the substrate was added to be 6 μM per final reaction. All reactions of FRET assay was conducted at 37° C.

Chain of DPP4 (P27487 whole entry): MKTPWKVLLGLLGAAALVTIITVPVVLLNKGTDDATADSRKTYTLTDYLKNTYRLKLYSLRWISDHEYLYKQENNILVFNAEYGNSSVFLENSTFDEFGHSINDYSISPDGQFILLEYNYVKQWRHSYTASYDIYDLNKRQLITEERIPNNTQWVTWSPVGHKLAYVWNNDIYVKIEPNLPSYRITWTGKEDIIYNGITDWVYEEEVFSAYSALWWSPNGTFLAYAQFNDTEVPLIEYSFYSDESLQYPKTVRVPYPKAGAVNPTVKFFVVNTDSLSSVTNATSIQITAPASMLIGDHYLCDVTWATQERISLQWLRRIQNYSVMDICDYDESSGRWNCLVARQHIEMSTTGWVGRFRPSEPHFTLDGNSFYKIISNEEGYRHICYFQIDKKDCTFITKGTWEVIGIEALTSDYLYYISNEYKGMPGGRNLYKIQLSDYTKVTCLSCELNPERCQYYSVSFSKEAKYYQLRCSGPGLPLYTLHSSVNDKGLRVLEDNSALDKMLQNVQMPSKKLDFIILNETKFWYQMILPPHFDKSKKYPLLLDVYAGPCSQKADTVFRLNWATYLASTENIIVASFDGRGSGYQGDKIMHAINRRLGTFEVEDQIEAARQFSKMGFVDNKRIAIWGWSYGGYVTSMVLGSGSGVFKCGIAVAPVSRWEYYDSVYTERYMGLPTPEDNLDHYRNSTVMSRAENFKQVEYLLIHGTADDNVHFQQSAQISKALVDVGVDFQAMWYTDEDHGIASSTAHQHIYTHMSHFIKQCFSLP

Take `N#C[C@@H]1C[C@H](F)CN1C(=O)CN1CC[C@H](Nc2cnc3ncccc3c2)C1` [Example 272, (2S,4S)-4-fluoro-1-[2-[(3S)-3-(1,8-naphthyridin-3-ylamino)pyrrolidin-1-yl]acetyl]pyrrolidine-2-carbonitrile]: the 50% inhibitory concentration (IC50) in experiment [1] stood at 2800 nM; in experiment [2], 16.3 nM.

As to `CN(C(=O)c1ccc(N[C@H]2CCN(CC(=O)N3CCC[C@H]3C#N)C2)c2cccnc12)c1ccccc1` [Example 289, N-methyl-N-phenyl-5-[[(3S)-1-[2-oxo-2-[(2S)-2-cyanopyrrolidin-1-yl]ethyl]pyrrolidin-3-yl]amino]quinoline-8-carboxamide], the IC50 is 14200 nM in experiment [1] and 36.3 nM in experiment [2].

On to `N#C[C@@H]1C[C@H](F)CN1C(=O)CN1CCC(Nc2cc(=O)oc3ccccc23)CC1` [Example 379, (2S,4S)-4-fluoro-1-[2-[4-[(2-oxochromen-4-yl)amino]-1-piperidyl]acetyl]pyrrolidine-2-carbonitrile], for which the IC50 in experiment [1] was found to be 3380 nM; in experiment [2], 47.4 nM.

With `N#C[C@@H]1CCCN1C(=O)CN1CC[C@@H](Nc2cc(Cl)c3ncccc3c2)C1` [Example 222, (2S)-1-[2-[(3R)-3-[(8-chloro-6-quinolyl)amino]pyrrolidin-1-yl]acetyl]pyrrolidine-2-carbonitrile], the IC50 was 11800 nM in experiment [1] and 2.1 nM in experiment [2].

`N#C[C@@H]1C[C@H](F)CN1C(=O)CN1CCC(Nc2cnc3nc(Cl)ccc3c2)CC1` [Example 369, (2S,4S)-1-[2-[4-[(7-chloro-1,8-naphthyridin-3-yl)amino]-1-piperidyl]acetyl]-4-fluoro-pyrrolidine-2-carbonitrile]: the IC50 in experiment [1] is at least 10000 nM; in experiment [2], 62.1 nM.

On to `COc1ccc2cc(NC3CCN(CC(=O)N4C[C@@H](F)C[C@H]4C#N)CC3)cnc2c1` [Example 366, (2S,4S)-4-fluoro-1-[2-[4-[(7-methoxy-3-quinolyl)amino]-1-piperidyl]acetyl]pyrrolidine-2-carbonitrile], for which the IC50 in experiment [1] was at least 10000 nM; in experiment [2] it was 36 nM.

Take `COc1cccc2cc(NC3CCN(CC(=O)N4C[C@@H](F)C[C@H]4C#N)CC3)cnc12` [Example 367, (2S,4S)-4-fluoro-1-[2-[4-[(8-methoxy-3-quinolyl)amino]-1-piperidyl]acetyl]pyrrolidine-2-carbonitrile]: the IC50 is at least 10000 nM in experiment [1] and 28.1 nM in experiment [2].

In the case of `CC(=O)N1CCc2c(NC3CCN(CC(=O)N4C[C@@H](F)C[C@H]4C#N)CC3)cccc21` [Example 373, (2S,4S)-1-[2-[4-[(1-acetylindolin-4-yl)amino]-1-piperidyl]acetyl]-4-fluoro-pyrrolidine-2-carbonitrile], the IC50 in experiment [1] was determined as 2760 nM; in experiment [2], 92.4 nM.

With `N#C[C@@H]1C[C@H](F)CN1C(=O)CN1CCC(Nc2ccnc(Br)c2)CC1` [Example 383, (2S,4S)-1-[2-[4-[(2-bromo-4-pyridyl)amino]-1-piperidyl]acetyl]-4-fluoro-pyrrolidine-2-carbonitrile], the IC50 in experiment [1] worked out at 2800 nM; in experiment [2], 39.3 nM.

On to `Cc1cccc2c(NC3CCN(CC(=O)N4C[C@@H](F)C[C@H]4C#N)CC3)ccnc12` [Example 343, (2S,4S)-4-fluoro-1-[2-[4-[(8-methyl-4-quinolyl)amino]-1-piperidyl]acetyl]pyrrolidine-2-carbonitrile], for which the IC50 came to 17400 nM in experiment [1] and 30.7 nM in experiment [2].

Regarding `Cc1ccc2c(OC3CCN(CC(=O)N4C[C@@H](F)C[C@H]4C#N)CC3)ccnc2c1` [Example 432, (2S,4S)-4-fluoro-1-[2-[4-[(7-methyl-4-quinolyl)oxy]-1-piperidyl]acetyl]pyrrolidine-2-carbonitrile], the 50% inhibitory concentration (IC50) in experiment [1] came out at 6580 nM; in experiment [2] it was 19.8 nM.

`Cc1cc(NC2CCN(CC(=O)N3C[C@@H](F)C[C@H]3C#N)CC2)cc2cccnc12` [Example 374, (2S,4S)-4-fluoro-1-[2-[4-[(8-methyl-6-quinolyl)amino]-1-piperidyl]acetyl]pyrrolidine-2-carbonitrile]: the results for the IC50 in experiment [1] and in experiment [2] were 5670 nM and 31.6 nM, respectively.

For the compound `COc1ccnc2ccc(N[C@@H]3CCN(CC(=O)N4CCC[C@H]4C#N)C3)cc12` [Example 219, (2S)-1-[2-[(3R)-3-[(4-methoxy-6-quinolyl)amino]pyrrolidin-1-yl]acetyl]pyrrolidine-2-carbonitrile], the IC50 was 13000 nM in experiment [1] and 16.8 nM in experiment [2].

As for `N#C[C@@H]1C[C@H](F)CN1C(=O)CN1CCC(Nc2cccc3ncc(C(=O)Nc4ccccc4)cc23)CC1` [Example 388, 5-[[1-[2-oxo-2-[(2S,4S)-2-cyano-4-fluoro-pyrrolidin-1-yl]ethyl]-4-piperidyl]amino]-N-phenyl-quinoline-3-carboxamide], the IC50 was found to be 6890 nM in experiment [1] and 70.2 nM in experiment [2].

Turning to `N#C[C@@H]1CCCN1C(=O)CN1CC[C@@H](Nc2ccnc3ccc(F)cc23)C1` [Example 225, (2S)-1-[2-[(3R)-3-[(6-fluoro-4-quinolyl)amino]pyrrolidin-1-yl]acetyl]pyrrolidine-2-carbonitrile], the results for the IC50 in experiment [1] and in experiment [2] were 34200 nM and 7.2 nM, respectively.

For `CN(C(=O)c1ccc(NC2CCN(CC(=O)N3CCC[C@H]3C#N)CC2)c2cccnc12)c1ccccc1` [Example 398, N-methyl-5-[[1-[2-oxo-2-[(2S)-2-cyanopyrrolidin-1-yl]ethyl]-4-piperidyl]amino]-N-phenyl-quinoline-8-carboxamide], the values for the IC50 in experiment [1] and in experiment [2] were 14000 nM and 98.6 nM, respectively.

As for `CN(Cc1ccccc1)C(=O)c1ccc(NC2CCN(CC(=O)N3CCC[C@H]3C#N)CC2)c2cccnc12` [Example 397, N-benzyl-N-methyl-5-[[1-[2-oxo-2-[(2S)-2-cyanopyrrolidin-1-yl]ethyl]-4-piperidyl]amino]quinoline-8-carboxamide], the IC50 in experiment [1] amounted to 28500 nM; in experiment [2], 38.9 nM.

`Cc1ccc2ncc(N(C)C3CCN(CC(=O)N4CCC[C@H]4C#N)CC3)cc2c1` [Example 322, (2S)-1-[2-[4-[methyl-(6-methyl-3-quinolyl)amino]-1-piperidyl]acetyl]pyrrolidine-2-carbonitrile]: the values for the IC50 in experiment [1] and in experiment [2] were at least 100000 nM and 10.3 nM, respectively.

In the case of `COc1ccc2ncc(NC3CCN(CC(=O)N4C[C@@H](F)C[C@H]4C#N)CC3)cc2c1` [Example 365, (2S,4S)-4-fluoro-1-[2-[4-[(6-methoxy-3-quinolyl)amino]-1-piperidyl]acetyl]pyrrolidine-2-carbonitrile], the concentration for half-maximal inhibition (IC50) was at least 10000 nM in experiment [1] and 22.3 nM in experiment [2].

Regarding `COc1ccc2cc(N(C)C3CCN(CC(=O)N4CCC[C@H]4C#N)CC3)cnc2c1` [Example 324, (2S)-1-[2-[4-[(7-methoxy-3-quinolyl)-methyl-amino]-1-piperidyl]acetyl]pyrrolidine-2-carbonitrile], the concentration for half-maximal inhibition (IC50) is at least 100000 nM in experiment [1] and 25 nM in experiment [2].

Regarding `N#C[C@@H]1C[C@H](F)CN1C(=O)CN1CC[C@@H](Nc2ccnc3c(C(F)(F)F)cccc23)C1` [Example 196, (2S,4S)-4-fluoro-1-[2-[(3R)-3-[[8-(trifluoromethyl)-4-quinolyl]amino]pyrrolidin-1-yl]acetyl]pyrrolidine-2-carbonitrile], the results for the IC50 in experiment [1] and in experiment [2] were 3840 nM and 7.4 nM, respectively.

For the compound `N#C[C@@H]1C[C@H](F)CN1C(=O)CN1CCC(Nc2cnc3ccc(F)cc3c2)CC1` [Example 364, (2S,4S)-4-fluoro-1-[2-[4-[(6-fluoro-3-quinolyl)amino]-1-piperidyl]acetyl]pyrrolidine-2-carbonitrile], the figures for the concentration for half-maximal inhibition (IC50) in experiment [1] and in experiment [2] were 9130 nM and 17.2 nM, respectively.

Consider `N#C[C@@H]1CCCN1C(=O)CN1CC[C@@H](Nc2ccnc3c(F)cccc23)C1` [Example 227, (2S)-1-[2-[(3R)-3-[(8-fluoro-4-quinolyl)amino]pyrrolidin-1-yl]acetyl]pyrrolidine-2-carbonitrile], for which the IC50 in experiment [1] came out at 31700 nM; in experiment [2] it was 7.2 nM.
